Each structure is given as a SMILES string.

The first assay deals with T1, KRAS G12C 1-169, his-tagged protein, GDP-loaded (Homo sapiens, UniProt P01116, G12C).
T1 construct: KRAS G12C 1-169, his-tagged protein, GDP-loaded
The experiment in a line: Biochemical assay: covalent modification of KRAS G12C measured by mass spectrometry (RapidFire/TOF or Q-Exactive). Type of assay: binding. As to conditions: tested at 32 μM. The method, then: Test compounds were prepared as 10 mM stock solutions in DMSO (Fisher cat. #BP-231-100). KRAS G12C 1-169, his-tagged protein, GDP-loaded is diluted to 2 μM or 0.5 μM in buffer (20 mM Hepes, 150 mM NaCl, 1 mM MgCl2). Compounds were tested for activity as follows:
Compounds were diluted to 50× final test concentration in DMSO in 96-well storage plates. Compound stock solutions were vortexed before use and observed cwerefully for any sign of precipitation. Dilutions were as follow: • For 32 μM final compound concentration, compounds were diluted to 1600 μM (3 μL 10 mM compound stock +15.75 μL DMSO and mixed well by pipetting. • For 8 μM final compound concentration, compounds were diluted to 400 μM (2 μL 10 mM compound stock +48 μL DMSO) and mixed well by pipetting. 49 μL of the stock protein solution was added to each well of a 96-well PCR plate (Fisher cat#1423027). 1 μl of the diluted 50× compounds were added to appropriate wells in the PCR plate using 12-channel pipettor. Reactions were mixed carefully and thoroughly by pipetting up/down with a 200 μL multi-channel pipettor. The plate was sealed well with aluminum plate seal, and protein and compound were allowed to react for a desired amount of time. 5 μL of 2% formic acid (Fisher cat#A117) in de-ionized H2O was then added to each well followed by mixing with a pipette to quench the reaction. The plate was then resealed with aluminum seal and stored frozen on dry ice until analyzed as described below.
The above described assays were analyzed by mass spectrometry according to one of the following two procedures:
The MS instrument was set to positive polarity, 2 GHz resolution, and low mass (1700) mode and allowed to equilibrate for 30 minutes. The instrument was then calibrated, switched to acquisition mode and the appropriate method loaded.
After another 30 minute equilibration time, a blank batch (i.e., buffer) was run to ensure equipment is operating properly. The samples were thawed at 37° C. for 10 minutes, briefly centrifuged, and transfered to the bench top. Wells A1 and H12 were spiked with 1 μL 500 μM internal standard peptide, and the plates centrifuged at 2000×g for 5 minutes. The method was then run and masses of each individual well recorded.
The masses (for which integration data is desired) for each well were pasted into the platemap and exported from the analysis. Masses for the internal standards were exported as well. The data at 50 ppm was extracted for the +19 charge state, and identity of well A1 was assigned using the internal standard spike and integrated. Peak data was exported as a TOF list and the above steps were repeated individually, for the +20, +21, +22, +23, +24, and +25 charge states.
The masses and peak intensities of KRAS G12C protein species were measured using a Dionex RSLCnano system (Thermo Scientific) connected to a Q Exactive Plus mass spectrometer (Thermo Scientific).
20 μL of sample was loaded onto a Aeris™ 3.6 μm WIDEPORE C4 200 Å, LC Column 50×2.1 mm column maintained at 40° C. at a flow rate of 600 μL/min with 80% Solvent A (0.1% formic acid in H2O) and 20% Solvent B (0.1% formic acid in acetonitrile). The liquid chromatography conditions were 20% solvent B for 1 minute, 20% to 60% solvent B for 1.5 minutes, 60% to 90% solvent for 0.5 minute, 90% solvent B for 0.2 minute, 90% to 20% solvent B for 0.2 minute, and then equilibrated for 1.6 minute before the following sample injection. The flow rate was maintained at 600 μL/min throughout the sample analysis.
The mass spectrometer was operated in profile mode at a resolution of 17500, 5 microscans, using 50 msec max injection time and an AGC target of 1×10^6, and a full mass range from 800-1850 m/z was recorded. The intact protein mode was applied for optimal ion transfer and maximum sensitivity. The ionization method was electrospray ionization, which used a spray voltage of 4 kV, sheath gas flow set to 50 AU, auxiliary gas flow set to 10 AU and sweep gas flow set to 1 AU. […]
In the case of `C=CC(=O)N1CC2(CCN(c3cc(N4CCOCC4)cc(-c4c(C)ccc5cnn(C)c45)c3C#N)C2)C1` [Compound I-16, 2-(2-acryloyl-2,6-diazaspiro[3.4]octan-6-yl)-6-(1,6-dimethyl-1H-indazol-7-yl)-4-morpholino-benzonitrile], the Bind % result is given as “+++ (+++ indicates binding activity greater than 75%)”.

For the compound `C=CC(=O)N1CC2(CCN(c3cccc(-c4c(O)cccc4F)c3C#N)C2)C1` [Compound I-17, 3-(2-acryloyl-2,6-diazaspiro[3.4]octan-6-yl)-2′-fluoro-6′-hydroxy-[1,1′-biphenyl]-2-carbonitrile], the Bind % entry is “+ (+ indicates binding activity greater than 0% and up to 50%)”.

As for `CC#CC(=O)N1CC2(CCN(c3cccc(-c4c(O)cccc4F)c3C#N)C2)C1` [Compound I-18, 3-(2-(but-2-ynoyl)-2,6-diazaspiro[3.4]octan-6-yl)-2′-fluoro-6′-hydroxy-[1,1′-biphenyl]-2-carbonitrile], the Bind % result was “+ (+ indicates binding activity greater than 0% and up to 50%)”.

`C=CC(=O)N1CC2(CCN(c3cccc(-c4c(C)ccc5[nH]nc(N)c45)c3C#N)C2)C1` [Compound I-19, 2-(2-acryloyl-2,6-diazaspiro[3.4]octan-6-yl)-6-(3-amino-5-methyl-1H-indazol-4-yl)benzonitrile]: the Bind % entry is “+++ (+++ indicates binding activity greater than 75%)”.

`C=CC(=O)N1CC2(CCN(c3cc(OCc4ccccn4)cc(-c4c(C)ccc5[nH]ncc45)c3C#N)C2)C1` [Compound I-20, 2-(2-acryloyl-2,6-diazaspiro[3.4]octan-6-yl)-6-(5-methyl-1H-indazol-4-yl)-4-(pyridin-2-ylmethoxy) benzonitrile]: the Bind % result is on record as “+++ (+++ indicates binding activity greater than 75%)”.

Take `C=CC(=O)N1CC2(CCN(c3cc(OC[C@@H]4CCCN4C)cc(-c4c(C)ccc5[nH]ncc45)c3C#N)C2)C1` [Compound I-21, 2-(2-acryloyl-2,6-diazaspiro[3.4]octan-6-yl)-6-(5-methyl-1H-indazol-4-yl)-4-(((S)-1-methylpyrrolidin-2-yl)methoxy) benzonitrile]: the Bind % result is reported as “+++ (+++ indicates binding activity greater than 75%)”.

Take `C=CC(=O)N1CCC2(CCN(c3cccc(-c4c(C)ccc5[nH]ncc45)c3C#N)C2)C1` (centres unmarked) [Compound I-22, 2-(7-acryloyl-2,7-diazaspiro[4.4]nonan-2-yl)-6-(5-methyl-1H-indazol-4-yl)benzonitrile]: the Bind % entry is “+ (+ indicates binding activity greater than 0% and up to 50%)”.

`CC#CC(=O)N1CC2(CCN(c3cccc(-c4c(C)ccc5[nH]nc(N)c45)c3C#N)C2)C1` [Compound I-23, 2-(3-amino-5-methyl-1H-indazol-4-yl)-6-(2-(but-2-ynoyl)-2,6-diazaspiro[3.4]octan-6-yl)benzonitrile]: the Bind % entry is “+ (+ indicates binding activity greater than 0% and up to 50%)”.

For `C=CC(=O)N1CC2(CCN(c3cc(N4CCC(N(C)C)CC4)cc(-c4c(C)ccc5[nH]ncc45)c3C#N)C2)C1` [Compound I-24, 2-(2-acryloyl-2,6-diazaspiro[3.4]octan-6-yl)-4-(4-(dimethylamino)piperidin-1-yl)-6-(5-methyl-1H-indazol-4-yl)benzonitrile], the Bind % result was “+++ (+++ indicates binding activity greater than 75%)”.

Regarding `C=CC(=O)N1CC2(CCN(c3ccc(C)c(-c4c(C)ccc5[nH]ncc45)c3C#N)C2)C1` [Compound I-25, 6-(2-acryloyl-2,6-diazaspiro[3.4]octan-6-yl)-3-methyl-2-(5-methyl-1H-indazol-4-yl)benzonitrile], the Bind % entry was “++ (++ indicates binding activity from 50 to 75%)”.

The same assay, now with this note: tested at a concentration of 8 μM.
On to `C=CC(=O)N1CC2(CCN(c3cc(N4CC(N(C)C)C4)cc(-c4c(C)ccc5[nH]ncc45)c3C#N)C2)C1` [Compound I-26, 2-(2-acryloyl-2,6-diazaspiro[3.4]octan-6-yl)-4-(3-(dimethylamino)azetidin-1-yl)-6-(5-methyl-1H-indazol-4-yl)benzonitrile], for which the Bind % result is reported as “+++ (+++ indicates binding activity greater than 75%)”.

`C=CC(=O)N1CC2(CCN(c3cc(OCCCN(C)C)cc(-c4c(C)ccc5[nH]ncc45)c3C#N)C2)C1` [Compound I-27, 2-(2-acryloyl-2,6-diazaspiro[3.4]octan-6-yl)-4-(3-(dimethylamino)propoxy)-6-(5-methyl-1H-indazol-4-yl)benzonitrile]: the Bind % entry is on record as “++ (++ indicates binding activity from 50 to 75%)”.

As to `C=CC(=O)N1CC2(CCN(c3cc(OCc4ccccn4)cc(-c4c(C)ccc5cnn(C)c45)c3C#N)C2)C1` [Compound I-28, 2-(2-acryloyl-2,6-diazaspiro[3.4]octan-6-yl)-6-(1,6-dimethyl-1H-indazol-7-yl)-4-(pyridin-2-ylmethoxy) benzonitrile], the Bind % entry is given as “+++ (+++ indicates binding activity greater than 75%)”.

`C=CC(=O)N1CC2(CCN(c3ccc(F)c(-c4c(C)ccc5[nH]ncc45)c3C#N)C2)C1` [Compound I-29, 6-(2-acryloyl-2,6-diazaspiro[3.4]octan-6-yl)-3-fluoro-2-(5-methyl-1H-indazol-4-yl)benzonitrile]: the Bind % entry is given as “+++ (+++ indicates binding activity greater than 75%)”.

With `C=CC(=O)N1CC2(CCN(c3cc(N4CCN(C)C(=O)C4)cc(-c4c(C)ccc5[nH]ncc45)c3C#N)C2)C1` [Compound I-30, 2-(2-acryloyl-2,6-diazaspiro[3.4]octan-6-yl)-6-(5-methyl-1H-indazol-4-yl)-4-(4-methyl-3-oxopiperazin-1-yl)benzonitrile], the Bind % result is “++ (++ indicates binding activity from 50 to 75%)”.

In the case of `C=CC(=O)N1CC2(CCN(c3cc(N4CCCC(O)C4)cc(-c4c(C)ccc5[nH]ncc45)c3C#N)C2)C1` (centres unmarked) [Compound I-31, 2-(2-acryloyl-2,6-diazaspiro[3.4]octan-6-yl)-4-(3-hydroxypiperidin-1-yl)-6-(5-methyl-1H-indazol-4-yl)benzonitrile], the Bind % result is “+++ (+++ indicates binding activity greater than 75%)”.

For the compound `C=CC(=O)N1CC2(CCN(c3cc(N4CCC(CN(C)C)CC4)cc(-c4c(C)ccc5[nH]ncc45)c3C#N)C2)C1` [Compound I-32, 2-(2-acryloyl-2,6-diazaspiro[3.4]octan-6-yl)-4-(4-((dimethylamino)methyl)piperidin-1-yl)-6-(5-methyl-1H-indazol-4-yl)benzonitrile], the Bind % result is listed as “+++ (+++ indicates binding activity greater than 75%)”.

In the case of `C=CC(=O)N1CC2(CCN(c3cc(N4CCCC(N(C)C)C4)cc(-c4c(C)ccc5[nH]ncc45)c3C#N)C2)C1` (centres unmarked) [Compound I-33, 2-(2-acryloyl-2,6-diazaspiro[3.4]octan-6-yl)-4-(3-(dimethylamino)piperidin-1-yl)-6-(5-methyl-1H-indazol-4-yl)benzonitrile], the Bind % entry is reported as “+++ (+++ indicates binding activity greater than 75%)”.

In the case of `Cc1ccc2[nH]ncc2c1-c1cc(N2CCOCC2)cc(N2CCC3(CN(C(=O)/C=C/CN(C)C)C3)C2)c1C#N` [Compound I-34, (E)-2-(2-(4-(dimethylamino)but-2-enoyl)-2,6-diazaspiro[3.4]octan-6-yl)-6-(5-methyl-1H-indazol-4-yl)-4-morpholino-benzonitrile], the Bind % result is “+ (+ indicates binding activity greater than 0% and up to 50%)”.

`C=CC(=O)N1CC2(CCN(c3cc(OCCCN(C)C)cc(-c4c(C)ccc5cnn(C)c45)c3C#N)C2)C1` [Compound I-35, 2-(2-acryloyl-2,6-diazaspiro[3.4]octan-6-yl)-6-(1,6-dimethyl-1H-indazol-7-yl)-4-(3-(dimethylamino)propoxy) benzonitrile]: the Bind % entry is “++ (++ indicates binding activity from 50 to 75%)”.

The record behind these values is patent US20210380595A1 (ARAXES PHARMA LLC, priority 2018, published 2021).
